The target in this data set is UBE2K. Kind of data set: reporter assay of Huesken 2005. The note with it: siRNA. Background: In a reporter assay the amount or activity of a reporter protein is the signal.

Here are results for 14 substances from the OligoGym collection.

Oligonucleotides are given in HELM: sugar(base)linkage, 5' to 3'; d 2'-deoxyribose, r ribose, m 2'-O-methylribose, p phosphate. ss, as = sense and antisense strand
Also: test concentration or dose not given here.

Regarding “RNA1{r(U)p.r(G)p.r(A)p.r(A)p.r(A)p.r(G)p.r(A)p.r(U)p.r(C)p.r(A)p.r(A)p.r(U)p.r(G)p.r(G)p.r(G)p.r(C)p.r(A)p.r(G)p.r(C)p.d(T)p.d(T)}|RNA2{r(G)p.r(C)p.r(U)p.r(G)p.r(C)p.r(C)p.r(C)p.r(A)p.r(U)p.r(U)p.r(G)p.r(A)p.r(U)p.r(C)p.r(U)p.r(U)p.r(U)p.r(C)p.r(A)p.d(G)p.d(G)}$$$RNA1{StrandType:ss}|RNA2{StrandType:as}$”, the normalised inhibition (eCFP-eYFP dual reporter) worked out at 57.3%. Take “RNA1{r(U)p.r(A)p.r(U)p.r(U)p.r(G)p.r(U)p.r(C)p.r(A)p.r(U)p.r(U)p.r(G)p.r(C)p.r(A)p.r(A)p.r(G)p.r(C)p.r(A)p.r(C)p.r(U)p.d(T)p.d(T)}|RNA2{r(A)p.r(G)p.r(U)p.r(G)p.r(C)p.r(U)p.r(U)p.r(G)p.r(C)p.r(A)p.r(A)p.r(U)p.r(G)p.r(A)p.r(C)p.r(A)p.r(A)p.r(U)p.r(A)p.d(A)p.d(T)}$$$RNA1{StrandType:ss}|RNA2{StrandType:as}$”: the normalised inhibition (eCFP-eYFP dual reporter) was determined as 89.2%. Then “RNA1{r(U)p.r(A)p.r(G)p.r(U)p.r(A)p.r(G)p.r(C)p.r(A)p.r(A)p.r(A)p.r(U)p.r(C)p.r(A)p.r(G)p.r(U)p.r(A)p.r(C)p.r(A)p.r(A)p.d(T)p.d(T)}|RNA2{r(U)p.r(U)p.r(G)p.r(U)p.r(A)p.r(C)p.r(U)p.r(G)p.r(A)p.r(U)p.r(U)p.r(U)p.r(G)p.r(C)p.r(U)p.r(A)p.r(C)p.r(U)p.r(A)p.d(C)p.d(A)}$$$RNA1{StrandType:ss}|RNA2{StrandType:as}$”, with 87.9%; and “RNA1{r(U)p.r(C)p.r(U)p.r(U)p.r(G)p.r(U)p.r(A)p.r(G)p.r(A)p.r(U)p.r(G)p.r(A)p.r(G)p.r(A)p.r(A)p.r(U)p.r(U)p.r(U)p.r(U)p.d(T)p.d(T)}|RNA2{r(A)p.r(A)p.r(A)p.r(A)p.r(U)p.r(U)p.r(C)p.r(U)p.r(C)p.r(A)p.r(U)p.r(C)p.r(U)p.r(A)p.r(C)p.r(A)p.r(A)p.r(G)p.r(A)p.d(T)p.d(C)}$$$RNA1{StrandType:ss}|RNA2{StrandType:as}$”, with 84.4%. Turning to “RNA1{r(G)p.r(A)p.r(A)p.r(U)p.r(U)p.r(A)p.r(A)p.r(G)p.r(A)p.r(G)p.r(G)p.r(A)p.r(G)p.r(A)p.r(A)p.r(A)p.r(U)p.r(A)p.r(G)p.d(T)p.d(T)}|RNA2{r(C)p.r(U)p.r(A)p.r(U)p.r(U)p.r(U)p.r(C)p.r(U)p.r(C)p.r(C)p.r(U)p.r(C)p.r(U)p.r(U)p.r(A)p.r(A)p.r(U)p.r(U)p.r(C)p.d(T)p.d(G)}$$$RNA1{StrandType:ss}|RNA2{StrandType:as}$”, the normalised inhibition (eCFP-eYFP dual reporter) worked out at 74.2%. Then “RNA1{r(A)p.r(U)p.r(G)p.r(A)p.r(C)p.r(U)p.r(C)p.r(U)p.r(C)p.r(C)p.r(G)p.r(C)p.r(A)p.r(C)p.r(G)p.r(G)p.r(U)p.r(A)p.r(U)p.d(T)p.d(T)}|RNA2{r(A)p.r(U)p.r(A)p.r(C)p.r(C)p.r(G)p.r(U)p.r(G)p.r(C)p.r(G)p.r(G)p.r(A)p.r(G)p.r(A)p.r(G)p.r(U)p.r(C)p.r(A)p.r(U)p.d(T)p.d(G)}$$$RNA1{StrandType:ss}|RNA2{StrandType:as}$”, with 85.7%. For “RNA1{r(G)p.r(A)p.r(C)p.r(A)p.r(C)p.r(A)p.r(C)p.r(C)p.r(A)p.r(U)p.r(A)p.r(U)p.r(G)p.r(A)p.r(A)p.r(G)p.r(G)p.r(A)p.r(G)p.d(T)p.d(T)}|RNA2{r(C)p.r(U)p.r(C)p.r(C)p.r(U)p.r(U)p.r(C)p.r(A)p.r(U)p.r(A)p.r(U)p.r(G)p.r(G)p.r(U)p.r(G)p.r(U)p.r(G)p.r(U)p.r(C)p.d(T)p.d(G)}$$$RNA1{StrandType:ss}|RNA2{StrandType:as}$”, the normalised inhibition (eCFP-eYFP dual reporter) is 64.2%. “RNA1{r(C)p.r(A)p.r(G)p.r(G)p.r(A)p.r(U)p.r(G)p.r(C)p.r(U)p.r(G)p.r(U)p.r(A)p.r(G)p.r(U)p.r(A)p.r(G)p.r(C)p.r(A)p.r(A)p.d(T)p.d(T)}|RNA2{r(U)p.r(U)p.r(G)p.r(C)p.r(U)p.r(A)p.r(C)p.r(U)p.r(A)p.r(C)p.r(A)p.r(G)p.r(C)p.r(A)p.r(U)p.r(C)p.r(C)p.r(U)p.r(G)p.d(T)p.d(G)}$$$RNA1{StrandType:ss}|RNA2{StrandType:as}$”: the normalised inhibition (eCFP-eYFP dual reporter) came to 93%. “RNA1{r(A)p.r(C)p.r(U)p.r(A)p.r(A)p.r(A)p.r(A)p.r(U)p.r(A)p.r(U)p.r(G)p.r(G)p.r(C)p.r(A)p.r(U)p.r(C)p.r(C)p.r(U)p.r(A)p.d(T)p.d(T)}|RNA2{r(U)p.r(A)p.r(G)p.r(G)p.r(A)p.r(U)p.r(G)p.r(C)p.r(C)p.r(A)p.r(U)p.r(A)p.r(U)p.r(U)p.r(U)p.r(U)p.r(A)p.r(G)p.r(U)p.d(G)p.d(A)}$$$RNA1{StrandType:ss}|RNA2{StrandType:as}$” displayed a normalised inhibition (eCFP-eYFP dual reporter) of 76%. On to “RNA1{r(G)p.r(A)p.r(U)p.r(C)p.r(C)p.r(A)p.r(C)p.r(A)p.r(G)p.r(G)p.r(A)p.r(U)p.r(G)p.r(C)p.r(U)p.r(G)p.r(U)p.r(A)p.r(G)p.d(T)p.d(T)}|RNA2{r(C)p.r(U)p.r(A)p.r(C)p.r(A)p.r(G)p.r(C)p.r(A)p.r(U)p.r(C)p.r(C)p.r(U)p.r(G)p.r(U)p.r(G)p.r(G)p.r(A)p.r(U)p.r(C)p.d(A)p.d(T)}$$$RNA1{StrandType:ss}|RNA2{StrandType:as}$”, for which the normalised inhibition (eCFP-eYFP dual reporter) stood at 67.6%. The substance “RNA1{r(U)p.r(G)p.r(U)p.r(U)p.r(U)p.r(G)p.r(G)p.r(A)p.r(U)p.r(A)p.r(U)p.r(C)p.r(C)p.r(U)p.r(G)p.r(A)p.r(A)p.r(A)p.r(G)p.d(T)p.d(T)}|RNA2{r(C)p.r(U)p.r(U)p.r(U)p.r(C)p.r(A)p.r(G)p.r(G)p.r(A)p.r(U)p.r(A)p.r(U)p.r(C)p.r(C)p.r(A)p.r(A)p.r(A)p.r(C)p.r(A)p.d(A)p.d(A)}$$$RNA1{StrandType:ss}|RNA2{StrandType:as}$” returned a normalised inhibition (eCFP-eYFP dual reporter) of 58.7%. As to “RNA1{r(C)p.r(C)p.r(U)p.r(A)p.r(A)p.r(U)p.r(A)p.r(U)p.r(U)p.r(A)p.r(G)p.r(U)p.r(U)p.r(C)p.r(C)p.r(G)p.r(U)p.r(C)p.r(A)p.d(T)p.d(T)}|RNA2{r(U)p.r(G)p.r(A)p.r(C)p.r(G)p.r(G)p.r(A)p.r(A)p.r(C)p.r(U)p.r(A)p.r(A)p.r(U)p.r(A)p.r(U)p.r(U)p.r(A)p.r(G)p.r(G)p.d(A)p.d(T)}$$$RNA1{StrandType:ss}|RNA2{StrandType:as}$”, the normalised inhibition (eCFP-eYFP dual reporter) is 74.9%. Consider “RNA1{r(A)p.r(U)p.r(G)p.r(U)p.r(U)p.r(C)p.r(A)p.r(A)p.r(A)p.r(C)p.r(A)p.r(G)p.r(A)p.r(C)p.r(A)p.r(G)p.r(C)p.r(U)p.r(C)p.d(T)p.d(T)}|RNA2{r(G)p.r(A)p.r(G)p.r(C)p.r(U)p.r(G)p.r(U)p.r(C)p.r(U)p.r(G)p.r(U)p.r(U)p.r(U)p.r(G)p.r(A)p.r(A)p.r(C)p.r(A)p.r(U)p.d(T)p.d(T)}$$$RNA1{StrandType:ss}|RNA2{StrandType:as}$”, for which the normalised inhibition (eCFP-eYFP dual reporter) stood at 64.6%. Regarding “RNA1{r(G)p.r(A)p.r(A)p.r(A)p.r(U)p.r(G)p.r(U)p.r(U)p.r(C)p.r(A)p.r(A)p.r(A)p.r(C)p.r(A)p.r(G)p.r(A)p.r(C)p.r(A)p.r(G)p.d(T)p.d(T)}|RNA2{r(C)p.r(U)p.r(G)p.r(U)p.r(C)p.r(U)p.r(G)p.r(U)p.r(U)p.r(U)p.r(G)p.r(A)p.r(A)p.r(C)p.r(A)p.r(U)p.r(U)p.r(U)p.r(C)p.d(G)p.d(G)}$$$RNA1{StrandType:ss}|RNA2{StrandType:as}$”, the normalised inhibition (eCFP-eYFP dual reporter) was found to be 76.6%.
